# Source: paper PMC3275588, “Cellular Growth Kinetics Distinguish a Cyclophilin Inhibitor from an HSP90 Inhibitor as a Selective Inhibitor of Hepatitis C Virus” (PLoS ONE, 2012)
# “And” between values parts separate entries of the source, which are not always exact repeats. Equal values may be shown once. Read-outs that look alike come from different tables or passages of the source.
# Legend:
# HCV replicon cells [1] = test: Calcein AM intracellular esterase activity (cell viability)
# Method: (§1) Using a stable cell line replicating a luciferase-encoding HCV replicon, we measured viral replication levels (Renilla luciferase) across a range of drug concentrations (2 nM to 44.4 µM) three days post drug addition. In parallel, we measured intracellular esterase activity as a surrogate for cell viability using the Calcein AM reagent.
# (§2) Renilla luciferase replicon cell assays were performed as previously described. Calcein AM (Anaspec, Fremont, CA) and CellTiter-Glo (Promega, Madison, WI) readouts were performed as instructed by the manufacturer.
# HCV replicon cells [2] = test: Trypan-blue exclusion viable cell count; type: cell-based; settings: 1 µM, multiple timepoints post drug addition
# Method: Cells treated were trypsinized and quantified at multiple timepoints post drug addition (Fig. 5C).
# (§3) To assess cellular growth, 96 well plates ImageLock plates (Essen Instruments, Ann Arbor, MI) were seeded at a density of 5×10^3 cells/well in culture medium without G418. Percent confluence was quantified using bright phase images (at 10× magnification) acquired of each well every four hours in an IncuCyte (Essen Instuments, Ann Arbor, MI). Alternatively, 7.5×10^4 cells/well were plated in 6 well plates. Each day post drug addition, cells were dislodged from the tissue culture plate using 350 µL trypsin-EDTA and then quenched with 150 µL fetal bovine serum. The number of cells that exclude trypan-blue was determined using the Vi-Cell (Beckman Coulter, Fullerton, CA) in triplicate.
# [3] = system: adapted HCV (2a) in dividing cells; test: Extracellular HCV titer in fully-infected dividing cultures; type: cell-based, hepatitis C virus
# Method: As a comparative control, we performed the same compound-treatment using fully-infected cultures that were still dividing (see Materials and Methods). […] The inhibitory effect of 17-AAG was diminished only as the cell cultures reached confluence (days 3 and 4 post-compound addition) (Fig. 6B).
# As a comparative control, fully-infected, growing cell cultures were prepared as well. Briefly, cells were plated at 25,000 cells/well on 12-well plates. After the cells adhered to the plate (four hours post-seeding), they were infected at an MOI of five using adapted HCV (2a) (see above). The HCV infection was permitted to spread until the cultures were fully infected (three days post-infection). Subsequently, compounds were added and extracellular medium was removed each day and analyzed as described above.
# HCV replicon cells [4] = test: CellTiter-Glo intracellular ATP (cell viability); settings: three day assay
# Method: as §2
# HCV replicon cells [5] = test: Cellular growth by percent confluence (IncuCyte time-lapse microscopy); type: cell-based; settings: for effect on kinetics of cellular proliferation: 1 µM, % confluence every four hours; for minimum inhibitory concentration (MIC) for growth rate: lowest concentration with significant decrease in growth rate
# Text: To distinguish between these two mechanisms, we directly measured cellular confluence (the percent of the culture well occupied by cells, % confluence) every four hours and quantified cellular replication rates.
# We next determined if 17-AAG slows cell growth at the same concentration at which it inhibits HCV replication. We quantified growth rate by assessing the change in % confluence between days 1 and 2 (% confluence/day) and measured the effect of growth rate as a function of dose.
# as §3
# [6] = system: genotype 1a replicon cells; test: Cell number by count of Hoechst-stained nuclei; type: cell-based; settings: three days; for number of cells per image / effect on number of cells per image: 1 µM compound
# Method: (§4) For direct assessment of cell number, genotype 1a replicon cells were seeded in 384 well plates at 1500 cells/well. Compounds were added as previously described. Cells were fixed in 1% paraformaldehyde (Electron Microscopy Sciences) and 25 µg/ml Hoechst 33342 (Invitrogen) in PBS for 30 minutes at room temperature. The fixed cells were washed twice with PBS, and images of each well were acquired with the ImageXpress Micro (Molecular Devices, Sunnyvale, CA). Nuclei were quantified with the cell scoring application in MetaXpress (Molecular Devices, Sunnyvale, CA).
# [7] = system: luciferase-encoding HCV replicon; test: HCV replicon Renilla luciferase antiviral assay; type: cell-based, hepatitis C virus; settings: three days post drug addition
# Method: as §1, §2
# [8] = system: non-dividing Lunet-CD81 monolayers; test: Cell number in non-dividing monolayers
# Method: (§5) Because 17-AAG slows cellular proliferation at concentrations similar to its effective concentration for inhibiting HCV replication, we next assessed whether it inhibited HCV replication in non-dividing cells. We first established a non-dividing monolayer of Lunet-CD81 cells and then infected that monolayer with cell-culture adapted virus capable of spreading and infecting all of the cells in a culture. […] When the fully-infected non-dividing cultures were treated with DMSO alone, the extracellular viral titer remained relatively constant at between 10^5 and 10^6 TCID50/ml over time (Fig. 6A). […] The reduction in HCV titer caused by 17-AAG, may at least in part, result from the modest toxicity observed in the non-dividing monolayers at the concentrations used.
# [9] = system: Infectious HCV (2a) Min3 virus in non-dividing Lunet-CD81 cells; test: Extracellular HCV titer in HCV-infected non-dividing cultures; type: cell-based, hepatitis C virus; settings: for reduction of infectious HCV titer: 10×EC50 (0.35 µM)
# Method: as §5
# HCV-infected non-dividing cultures were established by methods adapted from Sainz and Chisari. Briefly, Lunet-CD81 cells were seeded in 12-well plates at a density of 50,000 cells/well. The plates were incubated over-night at 37°C and subsequently DMSO was added to 1% final concentration. Cells were allowed to grow to confluence over three days. Infectious HCV (2a) with three adaptive mutations (the Min3 virus) (core K78E, NS2 W879R, and NS4B K1761N) was then added to each well at an MOI of five. […] 200 µl aliquots of the extracellular medium were saved daily, stored at −80°C, and subsequently used for infectious viral titering. After three days, the compound-medium was refreshed and time points were collected for seven days. Viral titers as a percentage of the DMSO-treated control were measured through diluting the extracellular medium 40-fold and using it to infect naïve Lunet-CD81 cells. After 72 hours of incubation, intracellular HCV replication was measured by following NS3-4A protease cleavage of a europium-labeled peptide.
# HCVcc Min3 virus = test: Antiviral potency in rapidly-dividing virus-infected cells (NS3-4A protease activity); type: cell-based, hepatitis C virus
# Method: To assess the antiviral potency of compounds in rapidly-dividing virus-infected cells. we adapted a method from a previously described assay. Briefly, 1500 cells per well were plated in 384 well-plates. Infection with the HCVcc Min3 virus (core K78E, NS2 W879R, and NS4B K1761N) was followed by addition of compound as described. After three days, intracellular NS3-4A protease activity was assessed. Luciferase, Calcein, CellTiter-Glo, and NS3-4A levels were expressed as a percent of the no-drug control.
# Supplementary file pone.0030286.s001.tif: Figure S1 CsA and 17-AAG maintain potency, similar to rapidly-dividing replicon cells, in rapidly-dividing virus-infected cells. The normalized amount of virus, as measured by enzymatic activity of the NS3-4A protease, was determined as a function of dose. […] (TIF) Click here for additional data file.
# [10] = Calcein AM intracellular esterase activity (cell viability)
# Method: as §1, §2
# [11] = CellTiter-Glo intracellular ATP (cell viability)
# Method: as §2
# [12] = Cell number by count of Hoechst-stained nuclei; type: cell-based; settings: genotype 1a HCV replicon cells; Hoechst-stained nuclei, three days
# Method: as §4
SMILES,effect on number of viable cells (HCV replicon cells [2]),effect on kinetics of cellular proliferation (HCV replicon cells [5]),minimum inhibitory concentration (MIC) for growth rate (HCV replicon cells [5]) [µM],number of cells per image [6],CC50 at 3 days [10] [nM],CC50 at 3 days [11] [nM],CC50 at 3 days [12] [nM],"EC50 ([7]; Hepatitis C virus, 72 h) [nM]",effect on number of cells per image [6],further results
"C=CCNC1=C2C[C@@H](C)C[C@H](OC)[C@H](O)[C@@H](C)/C=C(\C)[C@H](OC(N)=O)[C@@H](OC)/C=C\C=C(/C)C(=O)NC(=CC1=O)C2=O [17-AAG, 17-(Allylamino)-17-demethoxygeldanamycin]",reduced the number of viable cells equally effectively,slowed the kinetics of cellular proliferation significantly,0.022,~22 % of the controls,–,–,–,–,–,"CC50 (HCV replicon cells [1]; read-out: CC50 Calcein, intracellular esterase activity, three day assay): 21000 nM; reduction of level of infectious HCV ([3]; dividing cells, 10×EC50, after 24 hours of treatment): roughly 2 logs; CC50 (HCV replicon cells [4]; read-out: CC50 Intracellular ATP, CellTiter-Glo): 38 nM; growth rate (HCV replicon cells [5]; 22 nM, change in % confluence between days 1 and 2): 18.0+/−1.1 % confluence/day; CC50 ([6]; Hoechst-stained nuclei): 5 nM; EC50 [7]: 12.1 nM and 12 nM; number of cells ([8]; non-dividing monolayers, 10×EC50): 74 % of the DMSO-treated control; antiviral effect on HCV titer ([9]; non-dividing cell-culture model of HCV replication): little antiviral effect; reduction of infectious HCV titer ([9]; non-dividing cells, Day 7): 0.3 log; reduction of infectious HCV titer ([9]; non-dividing cells, day 2): 0.6 log; EC50 (HCVcc Min3 virus; rapidly-dividing virus-infected cells, NS3-4A protease activity, three days, read-out: EC50): 35 nM"
COc1ccc2c(O[C@@H]3C[C@H]4C(=O)N[C@]5(C(=O)O)C[C@H]5/C=C\CCCCC[C@H](NC(=O)OC5CCCC5)C(=O)N4C3)cc(-c3csc(NC(C)C)n3)nc2c1 [BILN-2061],–,–,–,–,–,–,–,–,–,"effect on viral titers ([3]; dividing and non-dividing cells, 10×EC50): inhibited viral titers in both dividing and non-dividing cells; effect on number of cells ([8]; human, 10 ×EC50): neither CsA nor BILN 2061-treatment decreased the number of cells; suppression of infectious HCV titer ([9]; non-dividing cells, 10×EC50, sustained over 7-day time course): 2 log; EC50 (HCVcc Min3 virus; Hepatitis C virus, 72 h): 140 nM"
"COc1cc2c(c(OC)c1OC)-c1ccc(OC)c(=O)cc1[C@@H](NC(C)=O)CC2 [Colchicine, colchicine]",–,–,–,–,> 44400,16,–,–,–,intracellular ATP signal (HCV replicon cells [4]; maximal effect): < 7 % of the untreated controls
"Nc1ccn([C@@H]2O[C@H](CO)[C@@H](O)C2(F)F)c(=O)n1 [Gemcitabine, gemcitabine]",–,–,–,~22 % of the controls,> 44400,6,4,12,–,–
CNC(=O)c1c(-c2ccc(F)cc2)oc2cc(N(CCO)S(C)(=O)=O)c(C3CC3)cc12 [HCV-796],Neither CsA nor HCV-796 treatment affected cell viability,–,–,–,> 44400,> 44400,> 44400,15,Neither 1 µM CsA (Fig. 4C) nor HCV-796 (Fig. 4A) altered the number of cells per image,"cytotoxicity (intracellular esterase activity) (HCV replicon cells [1]; 2 nM to 44.4 µM, three days): without any observable cytotoxicity; effect on cell proliferation (growth rate as a function of dose) (HCV replicon cells [5]; any concentration tested): did not significantly impair cell proliferation at any concentration tested; toxicity by cell number ([6]; dose response): non-toxic at all concentrations tested"
"COc1ccc(C[C@H](N)C(=O)N[C@H]2[C@@H](O)[C@H](n3cnc4c(N(C)C)ncnc43)O[C@@H]2CO)cc1 [Puromycin, puromycin]",reduced the number of viable cells equally effectively,rapid elimination of cells,0.205,–,1070,516,52,290,eliminated all cells,difference between CC50 (toxic concentration) and EC50 (antiviral concentration) (HCV replicon cells [1]; Calcein assay vs replicon assay): ≤ 4 fold
